Experimental data from US9795692B2, “Ocular detection of amyloid proteins” (SYSTEM OF SYSTEMS ANALYTICS, INC., priority 2011, dated 2017).

Key:
Format in all cases: binding
[1] = molecular target: T1, non-Congophilic amyloid protein aggregates in human brain tissue (Homo sapiens, UniProt P05067); experiment: Staining of human hippocampal region and cerebral cortex compared with Congo Red
T1 construct: from tissue; host or cells: human post-mortem brain tissue (neocortex, hippocampus, cerebral cortex)
T1 sequence (P05067 672-713 limits assumed): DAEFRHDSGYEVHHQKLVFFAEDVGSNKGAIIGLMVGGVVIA

[2] = test system: amyloid aggregates in human eyes (optic nerve, ciliary retina, retina, drusen); experiment: Staining of sectioned human donor eyes
Excerpt: Human eyes from donors with and without Alzheimer's Disease were obtained from the Georgia Eye Bank.

[3] = test system: amyloid protein aggregates in brain tissue of transgenic mice with Alzheimer's Disease (Tg AD); experiment: Staining of murine brain tissue with FITC-labeled probe; conditions: age-matched non-Tg murine brain; dentate gyrus or midbrain
Procedure: Probes for detecting amyloid protein aggregates in brain tissue of transgenic mice with Alzheimer's Disease (Tg AD) were prepared in accordance with the methods described herein.

[4] = patient (3), 11-1755/6, person, Alzheimer's Disease and dementia
[5] = patient (4), 11-1767-8, person, Alzheimer's Disease

Compound	structures stained in the cerebral cortex ([1]; cerebral cortex of patients with Alzheimer's Disease)	staining of morphological structures within the brain parenchyma ([1]; human brain parenchyma)	structures stained in the hippocampal region ([1]; human brain tissue, hippocampal region)	binding to amyloid aggregates in the optic nerve, intensity ([2]; human eye sections, optic nerve, PEP-11 compared with BC750)	staining of the retina, intensity and homogeneity ([2]; human eye sections, retina)	retinal staining: distinguishing Alzheimer's Disease from non-Alzheimer's Disease tissue ([2]; human eye sections, retina, AD vs non-AD eyes)	binding in optic nerve and ciliary retina ([2]; human eye sections, optic nerve immediately posterior to lamina cribrosa, ciliary retina)	manner of optic nerve staining ([2]; optic nerve of Alzheimer's Disease patients)	ciliary retina background staining [2, 4]	optic nerve staining [2, 4]	ciliary retina background staining [2, 5]	optic nerve staining [2, 5]	staining of drusen ([2]; patient eyes, generally)	staining of non-Tg control brain tissue [3]
Nc1c(/N=N/c2ccc(-c3ccc(/N=N/c4cc(S(=O)(=O)O)c5ccccc5c4N)cc3)cc2)cc(S(=O)(=O)O)c2ccccc12 [Congo Red]	stained congophilic neuro-fibrillary tangles	Neither Congo Red nor PEP-11 stained any morphological structure	stained amyloid plaques at the center of the plaques											
PEP-11: WT17-35 with FITC and d-Arginine at C-Terminal (CLVFFAEDVGSNKGAIIGLMC; FITC label, C-terminal D-arginine; /note=“Description of Artificial Sequence Synthetic probe”)				significantly greater	ubiquitous background staining of retinal tissue	less intensely in non-Alzheimer's Disease eyes as compared to Alzheimer's Disease eyes	bound to amyloid aggregates	dose gradient manner	moderate and homogenous	moderate	moderate and homogenous	intense	appears to stain drusen	minimally stained
